Assay results published in ChEMBL document CHEMBL2434903, “Synthesis and biological evaluation of furopyrimidine N,O-nucleosides” (Bioorg Med Chem, 2013).
Activity calls are given as the source filed them. The calls are words filed in the database; no cut-off is given here.

Legend:
[1] = Cytostatic activity against human MRC5 cells by MTT assay; assay type: ADME, cell-based
[2] = Cytostatic activity against African green monkey BSC1 cells by MTT assay; assay type: ADME, cell-based, BSC-1; details: chlorocebus aethiops
Poliovirus 1 = experiment: Antiviral activity against Poliovirus 1 Sabin VR-1562 infected in African green monkey Vero cells assessed as inhibition of virus-induced cytopathogenicity; assay type: functional, cell-based; details: Human poliovirus 1 strain Sabin
Human alphaherpesvirus 3 = experiment: Antiviral activity against Varicella-zoster virus VR-1367 infected in African green monkey BSC1 cells assessed as inhibition of virus plaque formation; assay type: functional, organism-based; details: BSC-1
Coxsackievirus B4 = experiment: Antiviral activity against Coxsackievirus B4 VR-1035 infected in African green monkey Vero cells assessed as inhibition of virus-induced cytopathogenicity; assay type: functional, organism-based
Echovirus E9 = experiment: Antiviral activity against Human echovirus 9 VR-1050 infected in African green monkey Vero cells assessed as inhibition of virus-induced cytopathogenicity; assay type: functional, organism-based
Human alphaherpesvirus 1 = experiment: Antiviral activity against Herpes simplex virus type 1 VR-260 infected in African green monkey Vero cells assessed as inhibition of virus-induced cytopathogenicity; assay type: functional, organism-based
Human adenovirus 2 = experiment: Antiviral activity against Adenovirus 2 VR-1080 infected in African green monkey Vero cells assessed as inhibition of virus-induced cytopathogenicity; assay type: functional, organism-based
[3] = Cytostatic activity against African green monkey Vero cells by MTT assay; assay type: ADME, cell-based; details: chlorocebus sabaeus
Human alphaherpesvirus 2 = experiment: Antiviral activity against Herpes simplex virus type 2 VR-734 infected in African green monkey Vero cells assessed as inhibition of virus-induced cytopathogenicity; assay type: functional, organism-based
[4] = Cytotoxicity against African green monkey BSC1 cells assessed as change in cell morphology after 24 to 96 hrs by light microscopic analysis; assay type: cell-based, BSC-1; details: chlorocebus aethiops
Human betaherpesvirus 5 = experiment: Antiviral activity against Cytomegalovirus VR-538 infected in human MRC5 cells assessed as inhibition of virus-induced cytopathogenicity; assay type: functional, organism-based
[5] = Cytotoxicity against African green monkey Vero cells assessed as change in cell morphology after 24 to 96 hrs by light microscopic analysis; assay type: cell-based; details: chlorocebus sabaeus
[6] = Cytotoxicity against human MRC5 cells assessed as change in cell morphology after 24 to 96 hrs by light microscopic analysis; assay type: cell-based

Row | Structure (SMILES) | CC50 [1] | CC50 [2] | inhibition (Poliovirus 1) | inhibition (Human alphaherpesvirus 3) | inhibition (Coxsackievirus B4) | inhibition (Echovirus E9) | inhibition (Human alphaherpesvirus 1) | inhibition (Human adenovirus 2) | CC50 [3] | inhibition (Human alphaherpesvirus 2) | MCC [4] | inhibition (Human betaherpesvirus 5) | MCC [5] | MCC [6]
1 | CCCc1cc2cn(C3CC(CO)N(C)O3)c(=O)nc2o1 (stereo not drawn) | 31.2 µM | 7 µM | inactive | inactive | inactive | inactive | inactive | inactive | 31.2 µM | inactive | > 250 µM | inactive | > 500 µM | > 250 µM
2 | Nc1nc2c(ncn2COCCO)c(=O)[nH]1 | – | – | Active | Active | Active | Active | Active | Active | – | Active | – | Active | – | –
3 | COc1ccc(-c2cc3cn(C4CC(CO)N(C)O4)c(=O)nc3o2)cc1 (racemic) | 31.2 µM | 7 µM | inactive | inactive | inactive | inactive | inactive | inactive | 62.5 µM | inactive | 62 µM | inactive | 62.5 µM | 62 µM
4 | CCCCCc1ccc(-c2cc3cn(C4CC(CO)N(C)O4)c(=O)nc3o2)cc1 (racemic) | 1.5 µM | 0.7 µM | inactive | inactive | inactive | inactive | inactive | inactive | 3 µM | inactive | 6 µM | inactive | 6 µM | 6 µM
5 | CN1OC(n2cc3cc(-c4ccccc4)oc3nc2=O)CC1CO (racemic) | 125 µM | 32 µM | inactive | inactive | inactive | inactive | inactive | inactive | 125 µM | inactive | > 250 µM | inactive | 125 µM | > 250 µM
6 | CN1OC(n2cc3ccoc3nc2=O)CC1CO (racemic) | > 250 µM | 62 µM | inactive | inactive | inactive | inactive | inactive | inactive | 125 µM | inactive | > 250 µM | inactive | > 500 µM | > 250 µM
